Several values for one entry are separate records, joined by “and”; a condition that tells them apart may be missing. Equal values may be shown once.
Key:
HCAEC [1] = assay: Chemotaxis towards VEGF-A, modified Boyden chamber, HCAEC; type: cell-based, human; settings: 2 mM Melatonin; VEGF-A 10 ng/ml; migration 4 hours; performed only once
Experimental: Chemotaxis experiments were performed using a modified Boyden chamber. The apparatus consists of two multi-well chambers separated by a filter containing pores of uniform size. A solution containing a chemokine or chemotactic factor is placed in the lower/bottom chamber and a cell suspension is placed in the upper chamber. Cells can migrate through the pores across the filter and towards the chemoattractant in the lower chamber. Cells that migrated across the filter and remain attached to the lower side of the membrane are counted. Data are expressed in terms of migration index: the number of cells that migrated in response to agonist stimulation compared to the number of cells that migrated randomly, i.e. to medium only. Chemotaxis experiments so far were only performed with HCAEC. For these cells a 25×80 mm polycarbonate filter, […] (PVP) free was used (Whatman) with a pore size of […]. Before migration the filter was coated with collagen. Endothelial cells were incubated with Melatonin at 2 mM prior to and during migration. After 24 hours pre-incubation with Melatonin, untreated and Melatonin-treated cells were detached with trypsin and a cell suspension (0.5 million cells/ml) was loaded in the upper part of the chamber. […] At the end of migration, cells were fixed on the filter, stained with Giemsa and counted using a regular optic microscope.

[2] = system: HUVEC (Human Umbilical Vein Endothelial Cells); assay: [3H]-thymidine incorporation, HUVEC stimulated with VEGF-A; type: cell-based; settings: VEGF A 10 ng/ml 24 hours
Experimental: To investigate, whether melatonin has similar effects on other cell types, HUVEC (Human Umbilical Vein Endothelial Cells, Promocell) were tested. HUVEC were cultured in the corresponding complete medium (Endothelial Cell Growth Medium: ECGS/H 0.4%, Fetal Calf Serum 2%, Epidermal Growth Factor 0.1 ng/ml, Hydrocortison 1 μg/ml, basic Fibroblast Factor 1 ng/ml, Amphotericin B 50 ng/ml, Gentamicin 50 μg/ml). 24 hours prior to stimulation, the medium was replaced by a medium containing 2% serum and antibiotics, but devoid of the other complements. Then, HUVEC were stimulated with 10 ng/ml of VEGF-A for 24 hours. HUVEC were incubated for 48 hours with Melatonin and stimulated for 24 hours with VEGF-A at 10 ng/ml. After 24 hours of stimulation, the cells were incubated with radioactive [^3H]-thymidine. Two hour later, the medium was removed and cell-bound DNA was precipitated using 5% TCA (Trichloroacetic acid). Then, [^3H]-thymidine incorporation was measured using a beta-counter.

HCAEC [3] = assay: CytoTox-ONE LDH release cytotoxicity assay, HCAEC; type: cell-based, human; settings: 48 hours, 0.2 to 6 mM Melatonin
Experimental: (§1) Cytotoxicity experiments were performed with cells cultured on 96-well plates. The CytoTox-ONE™ Assay from Promega was used to assess the membrane integrity of cells. This test is based on a fluorometric method to estimate the number of non viable cells present in multiwell plates by measuring the release of lactate dehydrogenase (LDH) from cells with damaged membranes. Subconfluent cells were incubated for 48 hours with Melatonin at concentrations between 0.2 and 6 mM. During the 48 h Melatonin incubation, the medium was not changed to avoid removal of any detached cells. As a positive control three wells of untreated cells were incubated with lysis buffer (delivered with the assay) before measurement. At the end of the Melatonin incubation period, a volume of CytoTox-ONE reagent equal to the volume of cell culture medium present in each well was added. After 10 min incubation at 22° C. (room temperature), 50 μl of stop solution was added per 100 μl of CytoTox-ONE reagent added. The plate was shaked for 10 seconds and fluorescence was recorded with an excitation wavelength of 560 nm and an emission wavelength of 590 nm (Spectramax M2 fluorescence plate reader, Molecular devices).

[4] = system: human coronary artery endothelial cells (HCAEC); assay: CellTiter 96 One solution (MTS) cell proliferation assay, HCAEC; type: cell-based
Experimental: (§2) Human coronary artery endothelial cells (HCAEC) were purchased from Cambrex and human coronary artery smooth muscle cells (HCASMC) were purchased from Promocell. Cells were used for experiments between passage 4 and passage 12. Both cell types were cultured in their respective complete culture medium with the following composition: • HCASMC: Smooth Muscle Cell Growth Medium 2: Epidermal Growth Factor (EGF), basic Fibroblast Factor (FGF), Insulin, Fetal Calf Serum (FCS) 5%, Amphotericin B, Gentamicin. • HCAEC: Endothelial Growth Media-2 MV: hEGF, Hydrocortisone, GA-1000, FBS 5%, VEGF, hFGF-B, R3-IGF-1, Ascorbic Acid Medium was changed every other day. 24 hours prior to growth factor stimulation, the medium was replaced by fresh culture medium, however, without growth factors to increase the cellular sensitivity to the subsequent growth factor stimulation. Subconfluent HCAEC were stimulated with 10 ng/ml of VEGF-A, whereas subconfluent HCASMC were stimulated with 10 ng/ml of PDGF-BB. Likewise, both cell types were stimulated with 25% of human serum (final concentration). Melatonin (Acros organics) was kindly provided by BlueMedical Devices BV. A stock solution was prepared in DMSO, aliquoted and stored at −20° C. For each experiment a fresh aliquot was opened and diluted to the desired final concentration in cell culture medium. All proliferation and cytotoxicity experiments were performed on cells cultured on 96 well plates (Costar). The CellTiter 96 One solution cell proliferation assay from Promega was used to assess cell proliferation in a 96-well plate. This assay makes use of the MTS tetrazolium compound as a cellular substrate. MTS is bioreduced by living cells into a coloured formazan product that is soluble in tissue culture medium and absorbs light at 490 nm. The quantity of formazan produced is directly proportional to the number of living cells in culture. After 24 h stimulation, 20 μl of MTS reagent was added to the cells cultured in 100 ul of medium per well. After 2 to 4 hours of incubation at 37° C., 5% CO2, the absorbance at 490 nm was recorded using a 96-well plate reader (Tecan).

[5] = system: human coronary artery smooth muscle cells (HCASMC); assay: CellTiter 96 One solution (MTS) cell proliferation assay, HCASMC; type: cell-based
Experimental: as §2

HCASMC = assay: CytoTox-ONE LDH release cytotoxicity assay, HCASMC; type: cell-based, human; settings: 48 hours, 0.2 to 6 mM Melatonin
Experimental: as §1

## COc1ccc2[nH]cc(CCNC(C)=O)c2c1 [Melatonin, N-acetyl-5-methoxytryptamine]
HCAEC [1]
  effect on chemotactic response of HCAEC towards VEGF-A: did not have any significant effect
[2]; 0.2 mM Melatonin, 48 hours
  effect on HUVEC: inhibitory effect
[2]; Melatonin 48 hours
  VEGF-A induced [3H]-thymidine incorporation: completely inhibited
HCAEC [3]
  cytotoxic effect (LDH release) on HCAEC: does not induce any detectable cytotoxic effect
[4]
  concentrations at which proliferation of HCAEC is strongly inhibited: higher than 0.2 mM
[4]; Melatonin between 1 mM and 6 mM
  effect on HCAEC cell number: dramatic decrease in cell number
[4]; Melatonin up to 0.1 mM
  sensitivity of HCAEC proliferation: not sensitive
[4]; subconfluent cells
  concentration of maximal effect on HCAEC cell number: 3 mM and 6 mM
[5]
  concentrations at which proliferation of HCASMC is strongly inhibited: higher than 0.2 mM
[5]; 1 mM Melatonin, 24 hours pre-treatment, PDGF BB 10 ng/ml 24 h
  effect on number of smooth muscle cells: significant decrease in the number of smooth muscle cells
[5]; Melatonin up to 0.1 mM, PDGF BB 10 ng/ml 24 h
  effect on the proliferation of HCASMC: no significant effect
[5]; PDGF-BB stimulated
  concentration of maximal inhibitory effect on HCASMC: 5 mM
[5]; above 5 mM, up to 10 mM
  inhibitory effect on HCASMC at higher concentrations: no significant further increase in the inhibitory effect
HCASMC
  cytotoxic effect (LDH release) on HCASMC: does not induce any detectable cytotoxic effect

— patent US20090258053A1, “MEDICAL STENT PROVIDED WITH A COMBINATION OF MELATONIN AND PACLITAXEL” (Blue Medical Deevices BV, priority 2006, published 2009)
